Measurements as given in paper PMC4890880 (ACS infectious diseases, 2016).
Read-outs that look alike come from different tables or passages of the source.

Experiments:
[1] = test system: HepG2-A16-CD81EGFP cells; experiment: cells; settings: Homo sapiens; for IC50: HepG2, read-out: Tox IC50; for inhibition at 50 µM: HepG2, read-out: Tox max inhibition (%) @ 50 uM
[2] = test system: Plasmodium berghei (Pb-Luc) exoerythrocytic-stage parasites; experiment: microbe, parasite or virus in culture
[3] = HepG2, read-out: HepG2 Tox% @ 50 uM rep1
[4] = HepG2, read-out: HepG2 Tox% @ 50 uM rep2
[5] = read-out: Inhibition% @ 50 uM rep1
[6] = read-out: Inhibition% @ 50 uM rep2
[7] = read-out: PbLuc IC50, dose response, 1/3 dilutions, max conc. 10 or 50 uM, unit inferred
[8] = read-out: PbLuc max inhibition (%) @ 50 uM

SMILES	cytotoxicity at 50 µM [1, 3]	cytotoxicity at 50 µM [1, 4]	inhibition at 50 µM [2, 5]	inhibition at 50 µM [2, 6]	IC50 [1]	inhibition at 50 µM [1]	IC50 [2, 7]	inhibition at 50 µM [2, 8]	IC50 ([2]; read-out: PbLuc IC50, dose response, unit inferred)
CC(NCc1ccccc1)c1cc(Cl)ccc1O (stereo not shown) [MMV665789]	72%	89%	103%	100%					
FC(F)(F)c1cccc(Nc2nc3ccccc3nc2Nc2cccc(C(F)(F)F)c2)c1 [MMV665794]	100%		103%	102%	1.9 µM	102%	0.667 µM	100%	
CC(C)(C)CC(C)(C)NCC(O)COc1ccc2c(c1)CCC2 (stereo not shown) [MMV665817]	96%	98%	103%	104%					
CC1CC2=C(CC1CNCCCN(C)C)C(C)(C)CCC2 (stereo not shown) [MMV665830]	98%		102%	102%					
O=C(Nc1ccc(Cl)c(Cl)c1)Nc1ccc(Cl)c(Cl)c1 [MMV665852]	100%		103%	104%	4.86 µM	101%	0.669 µM	100%	
CCCCNc1nc(NC(C)(C)C)nc(NC(C)(C)C)n1 [MMV665864]	41%		94%	94%	> 50 µM	41%	15.5 µM	89%	
Cc1cc(Nc2ccc(C)c(Cl)c2)n2nc(C(F)(F)F)nc2n1 [MMV665874]	93%	95%	102%	102%					
CC(C)(C)C(=O)Nc1ccc(C(=O)Nc2cccc(-c3nc4ccccc4[nH]3)c2)cc1 [MMV665879]	99%	100%	102%	103%					
CC(Oc1ccc(NC(=O)c2cccs2)cc1)C(=O)c1ccc(Cl)cc1 (stereo not shown) [MMV665886]	82%		102%	102%					
c1ccc(-c2ccc(-c3nc4ccccc4[nH]3)cc2)cc1 [MMV665891]	39%	30%	103%	105%					
CC(=O)c1sc(NC(=O)Nc2ccc(C)cc2C)nc1C [MMV665894]	-26%		3.42%	-0.396%					
O=C(Nc1ccc(CN2CCOCC2)cc1)c1ccc(-c2ccc(Br)cc2)o1 [MMV665901]	101%	102%	104%	106%					
Cc1ccc(-c2cc(C(=O)Nc3ccc(S(=O)(=O)N4CCCCC4)cc3)[nH]n2)c(O)c1 [MMV665906]	-10%	-5%	-12%	30%					
O=C(Nc1nc(-c2ccccn2)cs1)c1ccccc1Br [MMV665909]	79%	86%	98%	98%					
O=C1c2ccccc2-c2nnc(-c3ccc(Br)cc3)cc21 [MMV665934]	-9%		1.49%	29%					
Cc1ccc(S(=O)(=O)c2c(COC(=O)c3cccc(C)c3)c(-c3ccccc3)nn2C)cc1 [MMV665936]	27%		102%	103%					

SMILES	cytotoxicity at 50 µM [1, 3]	cytotoxicity at 50 µM [1, 4]	inhibition at 50 µM [2, 5]	inhibition at 50 µM [2, 6]	IC50 [1]	inhibition at 50 µM [1]	IC50 [2, 7]	inhibition at 50 µM [2, 8]	IC50 ([2]; read-out: PbLuc IC50, dose response, unit inferred)
CN(C)c1ccc(C(O)(c2ccc(N(C)C)cc2)c2ccc(N(C)C)cc2)cc1 [MMV665941]	95%	97%	102%	104%	2.31 µM	96%	1.69 µM	99%	
Nc1ccc(-c2nc3cc(Cc4ccc5[nH]c(-c6ccc(N)cc6)nc5c4)ccc3[nH]2)cc1 [MMV665943]	99%		103%	104%	14.6 µM	95%	10.1 µM	97%	
CC(C)=CCN1CCC(C(=O)Nc2ccc(-c3nc4ccccc4[nH]3)cc2)CC1 [MMV665946]	98%	99%	100%	101%					
O=C(Nc1ccc(F)c(Cl)c1)Nc1ccc(Cl)c(Cl)c1 [MMV665953]	97%	98%	103%	102%	5.02 µM	99%	0.85 µM	101%	
COc1cccc(C(=O)NC(c2ccc(C)cc2)c2cc(Cl)c3cccnc3c2O)c1 (stereo not shown) [MMV665969]	92%		104%	104%	4.83 µM	89%	1.65 µM	101%	
Cc1ccc(OCCCCCCNCCO)c(C)c1 [MMV666020]	90%		104%	104%					
Cc1ccc(-c2cc3c(nn2)-c2ccccc2C3=O)cc1 [MMV666021]	31%	9%	99%	89%					
c1ccc(Cn2c(N=Nc3c(Nc4ccccc4)ccc4ccccc34)nc3ccccc32)cc1 [MMV666023]	83%	86%	99%	98%	12 µM	83%	4.21 µM	100%	
COc1ccc(C(=O)NC(c2ccc(Cl)cc2Cl)c2cc(Cl)c3cccnc3c2O)cc1 (stereo not shown) [MMV666054]	98%		100%	102%	12.7 µM	88%	1.58 µM	101%	
Cc1ccc2cc3c(N)c4c(C)ccc(C)c4nc3nc2c1 [MMV666079]	97%		103%	104%	> 50 µM	12%		74%	31.5 µM
O=C(NC(c1ccccc1)c1ccc2cccnc2c1O)c1ccccc1 (stereo not shown) [MMV666080]	92%	93%	101%	102%	4 µM	84%	1.55 µM	101%	
C=C(C)CCC(C)N1CCC(N2CCC(C(=O)NCCc3ccccc3)CC2)CC1 (stereo not shown) [MMV666110]	91%	97%	101%	99%					
CC(=O)c1ccc(NC(=O)CSc2nc(-c3ccccc3Cl)ns2)cc1 [MMV666124]	96%		104%	104%					
CC1=C(CC(=O)c2cccc([N+](=O)[O-])c2)C(=O)c2ccccc2C1=O [MMV666125]	100%		103%	104%	21.1 µM	99%	4.26 µM	99%	
O=c1nc(C=Cc2ccc(Br)cc2)oc2ccccc12 [MMV666599]	70%		102%	103%					
COc1cc(C(=O)ON=C(N)Cc2cccc3ccccc23)cc(OC)c1OC [MMV666687]	100%		102%	103%	17.1 µM	100%	12.6 µM	100%	
